Activity calls are given as the source filed them. The calls are words filed in the database; no cut-off is given here.
Assays:
Mus musculus [1] = assay: Antithrombosis activity in ferric cholride induced ICR mouse model of thrombosis assessed as inhibition of thrombus formation at 240 umol/kg, po measured after 15 mins; format: functional, organism-based
Mus musculus [2] = assay: Antiinflammatory activity in xylene induced ICR mouse ear edema model assessed as decrease in ear swelling at 0.11 mmol/kg, po pretreated for 30 mins followed by topical administration of xylene measured after 2 hrs; format: functional, organism-based
Rattus norvegicus [3] = assay: Antithrombotic activity in Sprague-Dawley rat model of thrombosis assessed as inhibition of thrombus formation at 167 umol/kg, po measured after 30 mins; format: functional, organism-based
[4] = molecular target: T1, P-selectin (Rattus norvegicus) (UniProt P98106); assay: Downregulation of P-selectin expression in arachidonic acid-activated Sprague-Dawley rat platelets assessed as P-selectin levels pretreated with platelets followed by arachidonic acid addition measured after 3 mins by ELISA
T1 sequence (whole entry): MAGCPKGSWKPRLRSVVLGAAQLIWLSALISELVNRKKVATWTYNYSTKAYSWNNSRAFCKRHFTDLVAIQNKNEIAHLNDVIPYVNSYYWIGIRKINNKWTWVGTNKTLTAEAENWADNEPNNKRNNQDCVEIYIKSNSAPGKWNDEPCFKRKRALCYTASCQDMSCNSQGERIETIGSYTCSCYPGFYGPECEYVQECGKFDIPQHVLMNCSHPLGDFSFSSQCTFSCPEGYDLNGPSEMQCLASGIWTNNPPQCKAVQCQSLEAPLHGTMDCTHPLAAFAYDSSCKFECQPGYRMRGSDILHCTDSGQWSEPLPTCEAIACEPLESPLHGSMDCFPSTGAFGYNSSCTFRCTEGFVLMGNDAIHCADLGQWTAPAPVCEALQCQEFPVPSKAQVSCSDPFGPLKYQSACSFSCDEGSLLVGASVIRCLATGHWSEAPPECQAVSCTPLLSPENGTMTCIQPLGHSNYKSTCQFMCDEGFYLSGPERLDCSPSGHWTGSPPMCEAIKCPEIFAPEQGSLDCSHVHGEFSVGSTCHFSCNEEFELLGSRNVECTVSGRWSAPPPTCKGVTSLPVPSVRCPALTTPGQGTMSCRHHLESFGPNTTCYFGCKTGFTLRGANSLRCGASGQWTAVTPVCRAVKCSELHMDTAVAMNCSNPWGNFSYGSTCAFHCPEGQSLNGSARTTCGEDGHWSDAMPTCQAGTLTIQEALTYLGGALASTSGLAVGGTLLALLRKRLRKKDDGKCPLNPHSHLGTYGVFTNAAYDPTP

Mus musculus [5] = assay: Antiinflammatory activity in xylene induced ICR mouse ear edema model assessed as decrease in ear swelling pretreated orally for 30 mins followed by topical administration of xylene measured after 2 hrs; format: functional
[6] = molecular target: T1, P-selectin (Rattus norvegicus); assay: (§1) Downregulation of P-selectin expression in arachidonic acid-activated Sprague-Dawley rat platelets assessed as decrease in fluorescence intensity pretreated for 30 mins followed by arachidonic acid addition measured after 5 mins by phycoerythrin-anti-[…] staining-based flow cytometry
[7] = molecular target: T1, P-selectin (Rattus norvegicus); assay: as §1, with “mean” for “decrease in”, “intensity at 20 nM” for “intensity”, “cytometry (reference value: 1621)” for “cytometry”
[8] = molecular target: T1, P-selectin (Rattus norvegicus); assay: as §1, with “as” for “as decrease in”, “intensity at 200 nM” for “intensity”, “cytometry (reference value: 1621)” for “cytometry”
[9] = molecular target: T1, P-selectin (Rattus norvegicus); assay: as §1, with “as” for “as decrease in”, “intensity at 2000 nM” for “intensity”, “cytometry (reference value: 1621)” for “cytometry”
[10] = molecular target: T2, P-selectin (Homo sapiens) (UniProt P16109); assay: Binding affinity to P-selectin (unknown origin) assessed as maximal absorbance at 295.4 nanometer at 0.18 mM by UV spectroscopy
T2 sequence (whole entry): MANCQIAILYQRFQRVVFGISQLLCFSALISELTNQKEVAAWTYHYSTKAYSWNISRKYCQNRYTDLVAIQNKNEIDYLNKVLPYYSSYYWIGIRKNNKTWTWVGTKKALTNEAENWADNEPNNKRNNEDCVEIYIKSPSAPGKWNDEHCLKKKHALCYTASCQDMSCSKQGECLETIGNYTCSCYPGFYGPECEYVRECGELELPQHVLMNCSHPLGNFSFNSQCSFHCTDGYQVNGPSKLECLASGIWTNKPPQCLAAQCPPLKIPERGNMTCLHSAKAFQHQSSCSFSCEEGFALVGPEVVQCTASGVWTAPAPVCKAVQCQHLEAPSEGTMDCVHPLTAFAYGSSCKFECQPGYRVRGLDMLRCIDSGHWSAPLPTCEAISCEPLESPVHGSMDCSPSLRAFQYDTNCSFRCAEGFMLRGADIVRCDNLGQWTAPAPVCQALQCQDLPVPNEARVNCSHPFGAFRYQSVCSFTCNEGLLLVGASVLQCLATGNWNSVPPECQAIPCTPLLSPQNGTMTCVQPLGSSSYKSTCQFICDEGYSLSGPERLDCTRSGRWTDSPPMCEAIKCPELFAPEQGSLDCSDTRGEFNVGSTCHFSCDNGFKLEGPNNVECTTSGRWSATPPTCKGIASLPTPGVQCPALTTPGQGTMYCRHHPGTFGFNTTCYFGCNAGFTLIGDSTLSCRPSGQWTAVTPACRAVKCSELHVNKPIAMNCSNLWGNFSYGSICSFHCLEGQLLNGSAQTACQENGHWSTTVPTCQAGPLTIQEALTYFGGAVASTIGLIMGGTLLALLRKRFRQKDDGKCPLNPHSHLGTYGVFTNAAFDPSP

[11] = molecular target: T2, P-selectin (Homo sapiens); assay: Binding affinity to P-selectin (unknown origin) assessed as maximal absorbance at 340.8 nanometer at 0.18 mM by UV spectroscopy
[12] = molecular target: T2, P-selectin (Homo sapiens); assay: Binding affinity to P-selectin (unknown origin) assessed as maximal absorbance at 352 nanometer at 0.18 mM by UV spectroscopy
[13] = molecular target: T2, P-selectin (Homo sapiens); assay: Binding affinity to P-selectin (unknown origin) assessed as red shift at 295.4 nanometer at 0.42 mM by UV spectroscopy
[14] = molecular target: T2, P-selectin (Homo sapiens); assay: Binding affinity to P-selectin (unknown origin) assessed as hyperchromic effect at 340.8 nanometer at 0.42 mM by UV spectroscopy
[15] = molecular target: T2, P-selectin (Homo sapiens); assay: Binding affinity to P-selectin (unknown origin) assessed as bathochromic shift at 340.8 nanometer at 0.42 mM by UV spectroscopy
Rattus norvegicus [16] = assay: Antithrombotic activity in po dosed Sprague-Dawley rat model of thrombosis assessed as inhibition of thrombus formation measured after 30 mins; format: functional
Rattus norvegicus [17] = organism: Rattus norvegicus; assay: Potency index, ratio of compound efficacy to aspirin efficacy for antithrombotic activity in Sprague-Dawley rat model of thrombosis; format: functional
Mus musculus [18] = assay: Antithrombosis activity in ferric chloride induced ICR mouse model of thrombosis assessed as inhibition of thrombus formation at 200 nmol/kg, po measured after 15 mins; format: functional, organism-based
Mus musculus [19] = organism: Mus musculus; assay: Potency index, ratio of compound efficacy to aspirin efficacy in ferric chloride induced ICR mouse model of thrombosis; format: functional
Mus musculus [20] = assay: Potency index, ratio of compound efficacy to aspirin efficacy in xylene induced ICR mouse ear edema model; format: functional
Mus musculus [21] = assay: Decrease in serum TNF-alpha level in xylene induced ICR mouse ear edema model administered orally 30 mins prior to topical administration of xylene; format: functional
Mus musculus [22] = assay: Decrease in serum IL8 level in xylene induced ICR mouse ear edema model at 2 nmol/kg,po pretreated for 30 mins followed by topical administration of xylene; format: functional
Mus musculus [23] = assay: Decrease in serum IL8 level in xylene induced ICR mouse ear edema model administered orally 30 mins prior to topical administration of xylene; format: functional
[24] = molecular target: T1, P-selectin (Rattus norvegicus); assay: Downregulation of P-selectin expression in arachidonic acid-activated Sprague-Dawley rat platelets at 200 to 2000 nM pretreated with platelets followed by arachidonic acid addition measured after 3 mins by ELISA
[25] = molecular target: T2, P-selectin (Homo sapiens); assay: Binding affinity to P-selectin (unknown origin) assessed as red shift at 352 nanometer at 0.42 mM by UV spectroscopy

CC(=O)Oc1ccccc1C(=O)O
inhibition (Mus musculus [1]): Active | Activity (Mus musculus [2]): Active | inhibition (Rattus norvegicus [3]): Active

O=C(O)[C@H](Cc1ccccc1)NCCc1nc(CO)cc2c1[nH]c1ccccc12
MEC [4]: 200 nM | Activity (Mus musculus [5]): Dose-dependent effect | MED (Mus musculus [5]): 20 nmol/kg | Activity [6]: Dose-dependent effect | MEC [6]: 20 nM | Flu intensity [7]: 871 | Flu intensity [8]: 754 | Flu intensity [9]: 665 | Activity [10]: 0.451 | Activity [11]: 0.355 | Activity [12]: 0.339 | Activity [13]: 1.4 nm | Activity [14]: 51.2% | Activity [15]: 0.6 nm | MED (Rattus norvegicus [16]): 20 nmol/kg | inhibition (Rattus norvegicus [16]): Dose-dependent effect | Ratio (Rattus norvegicus [17]): 835 | inhibition (Mus musculus [18]): Active | Ratio (Mus musculus [19]): 1200 | Ratio (Mus musculus [20]): 550 | MEC (Mus musculus [21]): 200 nmol/kg | Activity (Mus musculus [22]): Active | Activity (Mus musculus [23]): Dose-dependent effect | MEC (Mus musculus [23]): 2 nmol/kg | Activity [24]: Active | Activity [25]: 1.4 nm

Source: ChEMBL document CHEMBL3864130, “A novel lead of P-selectin inhibitor: Discovery, synthesis, bioassays and action mechanism” (2016)
